Broadly, the Kd is the concentration at which binding is half-saturated.

2 molecules from PMC8264504, “Identification of Koumine as a Translocator Protein 18 kDa Positive Allosteric Modulator for the Treatment of Inflammatory and Neuropathic Pain” (Frontiers in Pharmacology, 2021) can be followed below.

Test [1] deals with T1, mouse TSPO recombinant protein (TSPO proteoliposomes) (Mus musculus, UniProt P50637).
T1 construct: His tag; made in house; host or cells: Escherichia coli BL21(DE3) pLysS, pET15b vector
The experiment in a line: SPR single-cycle kinetics on TSPO proteoliposomes. It counts as binding. The method, then:
Cells of the BL21(DE3) pLysS Escherichia coli strain were transformed with the pET15b vector, from which the expression of mouse TSPO recombinant protein was induced by 1 mM isopropyl-1-thiol-β-D-galactopyranoside as previously described ([Robert and Lacapère, 2010]; [Senicourt et al., 2017]). Cells were harvested and resuspended in lysis buffer (150 mM NaCl and 50 mM HEPES-Na, pH 7.8) with the addition of 1 mg/ml lysozyme and sonicated thoroughly. The lysate was centrifuged at 15,000 g at 4°C for 20 min to pellet the insoluble inclusion bodies. The final pellet of inclusion bodies was solubilized in binding buffer (150 mM NaCl, 50 mM HEPES-Na, 1% SDS (wt/vol), pH 7.8) and was purified by the Ni-NTA gravity flow column.
Proteoliposomes composed of DMPC/DMPE (9:1) and TSPO in a 5:1 (wt/wt) ratio were prepared using a previously described method ([Ostuni et al., 2010]). Liposomes composed of DMPC/DMPE (9:1) were prepared as published previously ([Hatty et al., 2014]). A few milligrams of DMPC and DMPE were weighed into a round-bottom glass flask, and chloroform and methanol were added to dissolve them. A thin lipid film was prepared by a rotary evaporator and dried under vacuum for at least 3 h to remove all traces of chloroform and methanol. The dry lipid film was resuspended in PBS buffer (10 mM phosphate buffer, 2.7 mM KCl, 137 mM NaCl) to a concentration of 1 mg/ml, hydrated for 2 h at 45–55°C, and finally sonicated to produce small unilamellar vesicles. The suspension of small unilamellar vesicles was then kept at 45°C for use on the same day. The sizes of proteoliposomes and liposomes were determined by dynamic light scattering using Nicomp 380 Z3000 instrument (Parficle Sizing Systems, America).
SPR analyses were performed at 25°C with a Biacore T200 instrument. For proteoliposomes and liposomes (reference), they were immobilized on a series S L1 sensor chips. It is possible that the repeated regeneration steps in the multicycle kinetics process impairs the activity of TSPO proteoliposomes, thus we were unable to use multicycle kinetics to effectively determine the affinity of TSPO and its ligands. Therefore, the single cycle kinetics, which assumes to be as robust as the classical multicycle kinetics for measuring affinity, was used. Kinetic rate constants for the various analytes were determined using single cycle protocols where five serial 2-fold dilutions of the analytes were injected for 180 s without intervening regeneration, followed by a 300 s dissociation phase after the last injection. Interactions were measured at 30 μl/min. PBS, with addition of 1% DMSO (pH 7.4), was used as running buffer. […] For mouse TSPO in a lipid-free environment, affinity was measured according to established methods with minor modifications ([Zhang et al., 2015]). […]

Test [2] concerns formalin-induced inflammatory pain model. The experiment in a line: Formalin test. The class given is in vivo, mice. The note with it: for phase one nociceptive response: given alone, s.c. The method, then: The formalin test was assessed as described by Dubuisson and Dennis ([Dubuisson and Dennis, 1977]) with minor modifications. Briefly, mice were allowed to acclimate for at least 30 min in the transparent plastic box before formalin injection. Each animal was injected with 10 μl of 5% formalin into the dorsal surface of the right hindpaw. Mice were then observed at 0–5 min (phase one) and at 11–60 min (phase two) after formalin, and the amount of time spent licking or biting the injected paw was recorded as the nociceptive response. Ro5-4864 or vehicle (5% DMSO) was administered s. c. 30 min prior to the formalin injection, and koumine was administered s. c. 40 min before formalin injection. To determine whether koumine potentiated the anti-inflammatory pain effects of Ro5-4864, koumine or its vehicle was injected 10 min before Ro5-4864 injection. Ro5-4864 was dissolved in DMSO and diluted in sterile physiological saline, and the final concentration of DMSO was 5%. Koumine was dissolved in sterile physiological saline directly. Animals were randomized for treatment and behavioral test were performed in a blinded manner.

Like-named read-outs stand apart in the source and are kept apart here.

`CN1C(=O)CN=C(c2ccc(Cl)cc2)c2cc(Cl)ccc21` [Ro5-4864, reference compound]: in test [1] (SPR single-cycle kinetics, TSPO proteoliposomes on L1 chip, 25°C, Langmuir 1:1 fit, read-out: KD), the Kd was found to be 2.06 ± 0.11 nM. Besides, the “phase two nociceptive response” value in test [2] (Ro5-4864 alone 0.00016–0.5 mg/kg s.c. 30 min before formalin) was “produced a dose-dependent antinociceptive effect”. In addition, in test [2], the “phase one nociceptive response” value is listed as “produced an antinociceptive effect”.
On to `C=C[C@@]12CN(C)[C@H]3C[C@]14C(=Nc1ccccc14)[C@H]1C[C@@H]2[C@@H]3CO1` [koumine], for which the Kd in test [1] worked out at 0.86 ± 0.07 nM. For the same molecule, the “modulation of Ro5-4864-mediated analgesic effect, phase two” value in test [2] (0.4 mg/kg koumine s.c. 10 min before 0.00016–0.02 mg/kg Ro5-4864 s.c.) is “significantly augment”. Besides, the “modulation of Ro5-4864-mediated analgesic response, first phase” value in test [2] (0.4 mg/kg koumine s.c. 10 min before Ro5-4864) is reported as “did not increase”. Moreover, the “phase one nociceptive response” value in test [2] is on record as “ineffective”. Further, the “significant inhibition of second-phase nociceptive response” value in test [2] (koumine alone 0.08 and 0.4 mg/kg s.c.) is “not”. Also, the second-phase nociceptive response result in test [2] (koumine alone 2.0 and 10 mg/kg s.c. 40 min before formalin) is on record as “significantly inhibited the second-phase nociceptive response”.
